Experimental data from patent US9663503B2, “5-[[4-[[morpholin-2-yl]methylamino]-5-(trifluoromethyl)-2-pyridyl]amino]pyrazine-2-carbonitrile and therapeutic uses thereof” (priority 2012, dated 2017).

What was measured:
HT29 cells [1] = assay: Cellular potency in Mitosis Inhibition Assay (MIA), checkpoint abrogation after etoposide; format: cell-based; settings: versus Y-154
Description: Assay 2: Cellular Potency in Mitosis Inhibition Assay (MIA)
Checkpoint abrogation by CHK1 kinase function inhibitors in combination with genotoxic agents was assessed using a europium based ELISA assay designed to quantify the number of cells trapped in mitosis after treatment with a genotoxic agent (to induce G2 arrest) followed by a CHK1 inhibitor test compound in combination with nocodazole to abrogate this arrest. HT29 cells were seeded at 10^4 cells per well into 96-well plates in a volume of 160 μL and left to attach for 36 hours. […] After genotoxic drug exposure, the medium was removed and replaced with fresh medium (160 μL). […] CHK1 inhibitor test compounds were added in 40 μL aliquots using quadruplicate wells for each concentration. After 21 hours exposure, the medium was removed and cells were fixed in 4% formaldehyde in phosphate buffered saline (PBS, pH 7.4, pre-cooled to 4° C.) for 30 minutes at 4° C., followed by 100% methanol (pre-cooled to −20° C.) for 10 minutes at ambient temperature. Wells were washed with PBS and blocked with 5% dried milk (Marvel) in Tris-buffered saline (TBS, pH 7.4) at 37° C. for 30 minutes. Each well was washed three times with water containing 0.1% Tween 20. […] Primary antibody was removed and wells were washed with water containing 0.1% Tween 20. […] Europium emissions were counted on a Wallac, Victor2 counter (Perkin-Elmer, Bucks UK).

in vivo = settings: female Balb/c mice, 10 mg/kg iv and po
Description: Assay 5: Oral Bioavailability and Pharmacokinetics in Mice
All work was performed in accordance with the Home Office regulations under the Animals (Scientific Procedures) Act 1986 and according to UKCCCR guidelines for animal experimentation.
CHK1 inhibitor compounds were formulated in 10% DMSO, 1% Tween 20 and 89% sterile saline. Female Balb/c mice (Charles River UK Ltd, Margate, U.K.) were administered intravenously (iv) and orally (po) with 10 mg/kg of CHK1 inhibitor compound. Control animals received the vehicle alone. Groups of 3 mice were injected per timepoint. At 5, 15 and 30 minutes and 1, 2, 4, 6 and 24 hours after dosing, blood was collected by cardiac puncture with heparinised syringes from mice under anaesthesia (halothane/oxygen mix). Following centrifugation (9000×g, 2 minutes, 4° C.) plasma was frozen on dry ice and stored at −80° C. Tissues were excised, snap frozen in liquid nitrogen and stored at −80° C. Thawed plasma samples were extracted by protein precipitation using 3 volumes of methanol containing internal standard. […]. After centrifugation, supernatant was transferred for analysis. Extracted plasma samples were analysed by LC-MS-MS on an Agilent 1200 or 1290 LC coupled to an Agilent 6410 triple quadrupole mass spectrometer for the quantitation of the CHK1 inhibitor compound and internal standard. […]

CHK1 = CHK1 (Homo sapiens (Human), UniProt O14757); assay: CHK1 DELFIA assay as described in Collins et al., 2009a; format: biochemical
Sequence of CHK1 (O14757 whole entry): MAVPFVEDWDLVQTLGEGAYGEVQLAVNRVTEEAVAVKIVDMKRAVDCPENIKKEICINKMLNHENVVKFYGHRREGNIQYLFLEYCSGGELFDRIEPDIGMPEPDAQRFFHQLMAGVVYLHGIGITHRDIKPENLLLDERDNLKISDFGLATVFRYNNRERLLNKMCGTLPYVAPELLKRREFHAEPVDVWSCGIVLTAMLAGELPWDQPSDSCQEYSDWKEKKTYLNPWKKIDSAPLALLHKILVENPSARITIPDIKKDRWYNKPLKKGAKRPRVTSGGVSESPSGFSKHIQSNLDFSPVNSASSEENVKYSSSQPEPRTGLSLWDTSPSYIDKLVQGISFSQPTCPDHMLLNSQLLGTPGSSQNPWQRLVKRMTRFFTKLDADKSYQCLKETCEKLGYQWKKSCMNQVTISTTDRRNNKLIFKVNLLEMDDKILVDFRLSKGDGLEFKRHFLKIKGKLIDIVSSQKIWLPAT

HT29 cells [2] = assay: Selectivity in cells for CHK1-dependent checkpoint abrogation versus cytotoxicity (SRB IC50/MIA IC50); format: cell-based; settings: SRB IC50/MIA IC50, both in HT29 cells
Description: Assay 3: Assessment of Selectivity in Cells for CHK1-Dependent Checkpoint Abrogation versus Cytotoxicity
Compound cytotoxicity was assessed using a 96 hour sulforhodamine B assay (SRB, Sigma catalog number S9012). HT29 or SW620 cells were seeded at 1.6 to 3.2×10^3 cells per well in 96-well plates in a volume of 160 μL medium and allowed to attach for 36 hours prior to treatment. […] Cells were incubated for 96 hours (four doublings) at 37° C. in a humidified 5% CO2 environment and then fixed and stained with SRB.
The Activity Index (AI), a measure of the selectivity of the CHK1 inhibitor test compounds for effecting CHK1-dependent checkpoint abrogation versus cytotoxicity was calculated from the ratio of the CHK1 inhibitor cytotoxicity IC50 versus the MIA IC50 (i.e., Al=CHK1 inhibitor SRB IC50/MIA IC50), both measured in HT29 cells.

HT29 cells [3] = assay: Cellular efficacy in combination with SN38 (SRB potentiation); format: cell-based; settings: SRB IC50/Potentiation IC50, 96 hour, SN38 at its IC50
Description: Assay 4: Cellular Efficacy in HT29 or SW620 Colon Carcinoma Cells in Combination with SN38 or Gemcitabine
HT29 or SW620 cells were seeded at 1.6 to 3.2×10^3 cells per well in 96-well plates in a volume of 160 μL medium and allowed to attach for 36 hours prior to treatment.
The Potentiation Index (PI) was calculated as a measure of the ability of the CHK1 inhibitor to enhance SN38 or gemcitabine cytotoxicity and was defined as the ratio of the Cytotoxicity IC50 of the CHK1 inhibitor alone versus the Potentiation IC50 of the CHK1 inhibitor combined with the genotoxic (i.e., PI=CHK1 inhibitor SRB IC50/Potentiation IC50).

SMILES | more potent than the next most potent compound (Y-154), MIA cellular potency (HT29 cells [1]) | Oral Bioavailability in Mouse (in vivo) [%] | bioavailability (in vivo; female, Balb/c, mouse, in vivo, 10 mg/kg) [%] | IC50 (CHK1) [nM] | Cellular Selectivity (Activity Index) (HT29 cells [2]) [fold] | Cell Efficacy + SN38 in HT29 cells (Potentiation Index) (HT29 cells [3]) [fold]
N#Cc1cnc(Nc2cc(NC[C@H]3CNCCO3)c(C(F)(F)F)cn2)cn1 [Compound 1, 5-[[4-[[(2R)-Morpholin-2-yl]methylamino]-5-(trifluoromethyl)-2-pyridyl]amino]pyrazine-2-carbonitrile] | approximately 3 fold | 105 | 100 | – | – | –
N#Cc1cnc(Nc2cc(NC[C@@H]3CNCCO3)c(C(F)(F)F)cn2)cn1 [Compound 2, 5-[[4-[[(2S)-Morpholin-2-yl]methylamino]-5-(trifluoromethyl)-2-pyridyl]amino]pyrazine-2-carbonitrile] | ~5 fold | – | – | – | – | –
N#Cc1cnc(Nc2cc(NCC3CNCCO3)c(C(=O)Nc3ccccc3)cn2)cn1 (stereo not shown) [Compound Y-102] | – | – | – | 20 | 4.6 | –
COCc1ccc(-c2cnc(Nc3cnc(C#N)cn3)cc2NC[C@@H]2CNCCO2)cc1 [Compound Y-148] | – | – | – | 13 | 4.4 | –
COCCOc1ccc(-c2cnc(Nc3cnc(C#N)cn3)cc2NC[C@@H]2CNCCO2)cc1 [Compound Y-149] | – | – | – | 10 | 3.5 | –
COCC#Cc1cnc(Nc2cnc(C#N)cn2)cc1NC[C@@H]1CNCCO1 [Compound Y-154] | – | – | – | 1 | 9.0 | 0.8
COC(C)(C)C#Cc1cnc(Nc2cnc(C#N)cn2)cc1NC[C@@H]1CNCCO1 [Compound Y-155] | – | – | – | 5 | – | 0.9
COCc1ccc(-c2cnc(Nc3cnc(C#N)cn3)cc2NC[C@H]2CNCCO2)cc1 [Compound Y-156] | – | – | – | 10 | 5.4 | 1.6
COCCOc1ccc(-c2cnc(Nc3cnc(C#N)cn3)cc2NC[C@H]2CNCCO2)cc1 [Compound Y-157] | – | – | – | 15 | 6.3 | 2
COCCCc1cnc(Nc2cnc(C#N)cn2)cc1NC[C@H]1CNCCO1 [Compound Y-159] | – | – | – | 23 | – | –
